≈ marks a conversion by molar mass, not a printed value. Where “and” joins values, the source holds several entries; their conditions need not be identical. Equal values may be shown once. Read-outs that look alike come from different tables or passages of the source.
Tests used:
Lactobacillus = test: qPCR count of intestinal bacteria in rat stool after 5 days oral treatment; type: in vivo, Sprague Dawley rats; conditions: for cell count average value Lactobacillus: group average of cell counts; for Ct Values Lactobacillus / Cell Count Lactobacillus: individual rats, listed as RFX; for Ct Values Lactobacillus: average of three qPCR analyses; for Cell Count Lactobacillus: derived from Ct values
Procedure: (§1) The stools were collected at T0 and the day after the last treatment.
(§2) The two products were first dissolved in DMSO at the concentration of 100 mg/mL (stock solution), then to 0.5 mL of each solution 2.0 mL of PEG 400 and 7.5 mL of saline solution were added, under stirring. A stable suspension at the nominal concentration of 5 mg/mL is obtained. A volume of 10 mL/kg, equal to 50 mg/kg, is administered.
(§3) The detection method is based on isolation of the total genomic DNA from each stool sample, using a specific commercial kit. After the quali-quantitative evaluation of the DNA, the same DNA samples were stored at −20° C. Quantitative analyzes were performed using qPCR Real Time with the use of a DNA primer couples specific for Bifidobacterium, Enterococcus, Enterobacter, and Lactobacillus species.
(§4) DNA isolation was performed using the PowerFecal® DNA Isolation Kit (MO BIO Laboratories) commercial kit on a sample of 250 mg stool, each time. After isolation, the DNA samples were evaluated by spectrophotometric analysis. Each DNA sample was quantified in the 60-100 ng/μL range (high in proteins and sugars), as typical for stool-derived DNA.
(§5) Each sample was evaluated three times. For each DNA sample and for each specific DNA primer couple, the analysis provided a CT value that resulted to be correlated to the amount of DNA specific to the bacterial species, therefore closely correlated to the number of bacterial cells of that species present in the stool sample.
(§6) For relative quantification, a “generalized linear mixed model (GLMM) under Poisson-lognormal error” was applied. MCMC.qPCR R package was used to convert CT values into bacterial cell numbers. For the conversion, the formula: Number of cells=E(Ct1−Ct) was used, where E represents the efficiency of amplification, which in the present case assumes the value of 2. Ct1 represents the number of qPCR cycles needed to detect a single target molecule (in this study Ct1 is supposed to have the value of 39).
(§7) The Markov Chain Monte Carlo algorithm (MCMC) was used to estimate the effect of time on the development levels of each microbial genus. The GLMM method was used to verify if the levels of each bacterial genus at T0 and T5 differ. Furthermore, a statistical analysis to evaluate the significance of the differences between the T0 and T5 values was performed.

Enterococcus = test: as above; type: in vivo, Sprague Dawley rats; conditions: for cell count average value Enterococcus: group average of cell counts; for Ct Values Eterococcus / Cell Count Eterococcus: individual rats, listed as RFX; for Ct Values Eterococcus: average of three qPCR analyses; for Cell Count Eterococcus: derived from Ct values
Procedure: as §1, §2, §3, §4, §5, §6, §7

Bifidobacterium = test: as above; type: in vivo, Sprague Dawley rats; conditions: for cell count average value Bifidobacterium: group average of cell counts; for Ct Values Bifidobacterium / Cell Count Bifidobacterium: individual rats, listed as RFX; for Ct Values Bifidobacterium: average of three qPCR analyses; for Cell Count Bifidobacterium: derived from Ct values
Procedure: as §1, §2, §3, §4, §5, §6, §7

Enterobacter = test: as above; type: in vivo, Sprague Dawley rats; conditions: for cell count average value Enterobacter: group average of cell counts; for Ct Values Enterobacter / Cell Count Enterobacter: individual rats, listed as RFX; for Ct Values Enterobacter: average of three qPCR analyses; for Cell Count Enterobacter: derived from Ct values
Procedure: as §1, §2, §3, §4, §5, §6, §7

[1] = Pharmacokinetics after intravenous administration in male rats; conditions: Sprague-Dawley, rat, in vivo, 1 mg/kg
Procedure: (§8) To 0.250 mL of this solution, 4.750 mL of saline are added, obtaining a final 0.2 mg/mL (5% DMSO, 95% saline) solution. A volume of 5 mL/Kg is administered to 3 rats in each group to have a 1 mg/Kg dose for each of the two products. • Oral Administration of RFX and Derivative 3: the two products were dissolved in DMSO obtaining two solutions having a 60 mg/mL concentration (stock solutions). To 0.5 mL of each solution, 2.0 mL of PEG 400 and 7.5 mL of saline solution were added under stirring, obtaining a stable suspension with a nominal concentration of 3 mg/mL. A volume equal to a 30 mg/kg dose is administered to the animal.
(§9) Male Sprague Dawley rats, weighing between 250 and 300 g, were used in the study. The animals were housed and observed before the experiment according to an approved GMP protocol according to Italian legislation.
(§10) The rats were divided into three groups: • Group 1: i.v. treatment • Group 2: oral treatment for blood sampling • Group 3: oral treatment for urine and stool collection
(§11) Plasma: the calibration curve and the QC samples were prepared in untreated rat plasma, adding 5 μL of each stock solution to 45 μL of untreated rat plasma. The 50 μL of plasma obtained were diluted up to 100 μL with cold acetonitrile containing the Internal Standard (I.S.) at the final concentration of 50 ng/mL, and centrifuged for 5 min. at 9000 rpm at 5° C. The supernatant was transferred to a 96-well plate for analysis. The samples of Groups 1 and 2 were similarly prepared using 50 μL of plasma from the treated rats.
(§12) A non-compartmental analysis was applied, and the following pharmacokinetic parameters were considered for each subject:
(§13) The concentration data were extrapolated using the Analyst™ 6.1 software (Applied Biosystems); the AUCs were calculated using a linear-trapezoidal method, and a weight uniformity was performed as the first approach. The concentration/time graphs were performed after logarithmic transformation of the results using PK Solver 2.0 software, Excel 2007 Microsoft add in.

[2] = Pharmacokinetics after oral administration in male rats; conditions: Sprague-Dawley, rat, in vivo
Procedure: as §8, §9, §10, §11, §12, §13

[3] = system: Escherichia Coli ATCC 25922; test: MIC by serial dilution, Strain C; type: cell-based; conditions: ATCC25922, range between last concentration with growth and first without growth
Procedure: (§14) The MICs were calculated using the serial dilution method, and are expressed as the range between the last concentration at which the bacterial strain grows and the first concentration at which the strain tested no longer grows.

[4] = system: Staphylococcus aureus IM149; test: MIC by serial dilution, Strain A; type: cell-based; conditions: range between last concentration with growth and first without growth
Procedure: as §14

Escherichia Coli NK12 = test: MIC by serial dilution, Strain D; type: cell-based; conditions: COLINK12, range between last concentration with growth and first without growth
Procedure: as §14

[5] = cited from earlier work
[6] = system: Bacillus Subtilis ATCC 6633; test: MIC by serial dilution, Strain B; type: cell-based; conditions: ATCC6633, range between last concentration with growth and first without growth
Procedure: as §14

[7] = T5 (day after 5 days oral 50 mg/kg)
[8] = T5 (day after 5 days oral 50 mg/kg), 50 mg/kg
[9] = oral treatment 5 days, 50 mg/kg, T5 vs T0

CO[C@H]1/C=C/O[C@@]2(C)Oc3c(C)c(O)c4c(O)c(c5c(nc6cc(C)ccn65)c4c3C2=O)NC(=O)/C(C)=C\C=C\[C@H](C)[C@H](O)[C@@H](C)[C@@H](O)[C@@H](C)[C@H](OC(C)=O)[C@@H]1C [Rifaximin, reference compound]
cell count average value Lactobacillus (Lactobacillus; T0 (before treatment)): 1.3 × 10^6
Ct Values Lactobacillus (Lactobacillus; T0 (before treatment)): 20.565 and 20.928 and 19.111 and 20.465 and 17.200 and 17.852
Cell Count Lactobacillus (Lactobacillus; T0 (before treatment)): 3.55E+05 cells per mg of stool and 2.75E+05 cells per mg of stool and 9.71E+05 cells per mg of stool and 3.80E+05 cells per mg of stool and 3.65E+06 cells per mg of stool and 2.32E+06 cells per mg of stool
cell count average value Lactobacillus (Lactobacillus; [7]): 6.6 × 10^5
Ct Values Lactobacillus (Lactobacillus; [8]): 20.364 and 19.891 and 18.746 and 19.308 and 19.872 and 20.306
Cell Count Lactobacillus (Lactobacillus; [8]): 4.07E+05 cells per mg of stool and 5.65E+05 cells per mg of stool and 1.25E+06 cells per mg of stool and 8.47E+05 cells per mg of stool and 5.73E+05 cells per mg of stool and 4.24E+05 cells per mg of stool
change in cell count for the Lactobacillus genus (Lactobacillus; [9]): no significant differences
cell count average value Enterococcus (Enterococcus; T0 (before treatment)): 9.2 × 10^6
Ct Values Eterococcus (Enterococcus; T0 (before treatment)): 23.236 and 22.741 and 14.976 and 16.124 and 18.925 and 14.203
Cell Count Eterococcus (Enterococcus; T0 (before treatment)): 5.56E+04 cells per mg of stool and 7.84E+04 cells per mg of stool and 1.71E+07 cells per mg of stool and 7.70E+06 cells per mg of stool and 1.10E+06 cells per mg of stool and 2.91E+07 cells per mg of stool
cell count average value Enterococcus (Enterococcus; [7]): 28 × 10^4
Ct Values Eterococcus (Enterococcus; [8]): 23.676 and 24.09 and 24.608 and 23.121 and 25.293 and 26.739
Cell Count Eterococcus (Enterococcus; [8]): 4.10E+04 cells per mg of stool and 3.06E+04 cells per mg of stool and .15E+04 cells per mg of stool and 6.03E+04 cells per mg of stool and 1.34E+04 cells per mg of stool and 4.91E+03 cells per mg of stool
drop in cell count for the Enterococcus genus (Enterococcus; [9]): about 100 times
cell count average value Bifidobacterium (Bifidobacterium; T0 (before treatment)): 6.87 × 10^6
Ct Values Bifidobacterium (Bifidobacterium; T0 (before treatment)): 15.880 and 14.080 and 22.166 and 21.412 and 24.420 and 23.158
Cell Count Bifidobacterium (Bifidobacterium; T0 (before treatment)): 9.11E+06 cells per mg of stool and 3.17E+07 cells per mg of stool and 1.17E+05 cells per mg of stool and 1.97E+05 cells per mg of stool and 2.45E+04 cells per mg of stool and 5.87E+04 cells per mg of stool
cell count average value Bifidobacterium (Bifidobacterium; [7]): 8.26 × 10^6
Ct Values Bifidobacterium (Bifidobacterium; [8]): 13.747 and 16.114 and 24.545 and 18.232 and 27.172 and 26.104
Cell Count Bifidobacterium (Bifidobacterium; [8]): 4.00E+07 cells per mg of stool and 7.75E+06 cells per mg of stool and 2.25E+04 cells per mg of stool and 1.79E+06 cells per mg of stool and 3.64E+03 cells per mg of stool and 7.62E+03 cells per mg of stool
decrease in the bacterial count for the Bifidobacterium genus (Bifidobacterium; [9]): no significant differences
cell count average value Enterobacter (Enterobacter; T0 (before treatment)): 2.69 × 10^6
Ct Values Enterobacter (Enterobacter; T0 (before treatment)): 17.704 and 23.688 and 16.284 and 17.749 and 17.616 and 18.371
Cell Count Enterobacter (Enterobacter; T0 (before treatment)): 2.57E+06 cells per mg of stool and 4.07E+04 cells per mg of stool and 6.89E+06 cells per mg of stool and 2.50E+06 cells per mg of stool and 2.74E+06 cells per mg of stool and 1.62E+06 cells per mg of stool
cell count average value Enterobacter (Enterobacter; [7]): 5.98 × 10^5
Ct Values Enterobacter (Enterobacter; [8]): 20.143 and 25.467 and 17.828 and 21.542 and 23.096 and 20.066
Cell Count Enterobacter (Enterobacter; [8]): 4.75E+05 cells per mg of stool and 1.19E+04 cells per mg of stool and 2.36E+06 cells per mg of stool and 1.80E+05 cells per mg of stool and 6.13E+04 cells per mg of stool and 5.01E+05 cells per mg of stool
drop in cell count for the Enterobacter genus (Enterobacter; [9]): about 10 times
AUC(0-inf) [1]: 1990 ng·h/mL
AUC(0-t) [1]: 1990 ng·h/mL
C0 [1]: 3760 ng/mL
Cl_obs [1]: 9.8 mL/min/kg
Cmax [1]: 2880 ng/mL
MRT inf [1]: 1.18 h
Tmax [1]: 5 min
Vss_obs [1]: 0.757 L/kg
half-life [1]: 2.45 h
bioavailability [2]: 0.4%
AUC(0-inf) ([2]; po, 30 mg/kg): 222 ng·h/mL
AUC(0-t) ([2]; po, 30 mg/kg): 197 ng·h/mL
Cmax ([2]; po, 30 mg/kg): 57.1 ng/mL
MRT inf ([2]; po, 30 mg/kg): 9.22 h
Tmax ([2]; po, 30 mg/kg): 0.5 h
half-life ([2]; po, 30 mg/kg): 9.63 h
MIC [3]: 2 to 4 µg/mL (≈ 2.54 to 5.09 µM)
MIC [4]: 0.25 to 0.5 µg/mL (≈ 0.318 to 0.636 µM)
MIC (Escherichia Coli NK12): 4 to 8 µg/mL (≈ 5.09 to 10.2 µM)
solubility ([5]; in the presence of 20 mM bile acids): 72.6%
solubility ([5]; in water): 0.6%
MIC [6]: 0.125 to 0.25 µg/mL (≈ 0.159 to 0.318 µM)

From patent US11028086B2, “Pyrido-imidazo rifamycins” (Biofer S.p.A., priority 2017, dated 2021)
